Test results: patent US20140079717A1, “Compositions and Methods to Prevent Cell Transformation and Cancer Metastasis” (CORNELL UNIVERSITY, priority 2011, published 2014)

What was measured:
NIH3T3 fibroblasts = experiment: Anchorage-independent growth assay (soft agar) on NIH3T3 fibroblasts incubated with MVs; type: cell-based; settings: NIH3T3 cells, U87 cell-derived MVs treated with AG1478
Description: FIG. 21. Anchorage-independent growth assays were performed on fibroblasts incubated with MDAMB231 cell-derived MVs treated without or with T101, the RGD-peptide, or the control RGE-peptide. Data represents the mean±s.d. from at least three independent experiments.
FIG. 34. MDAMB231 cell-derived MVs transform recipient MCF10A mammary epithelial cells. Anchorage-independent growth assays were performed on NIH3T3 fibroblasts incubated with U87 cell-derived MVs treated without or with the EGF receptor inhibitor AG1478. The culturing medium (including the MVs, T101, and AG1478) for the soft agar assays performed was replenished every third day for 12 days, at which time the colonies that formed were counted. […]
Parental NIH3T3 cells or MCF10A cells incubated without or with MVs derived from 5.0×10^6 MDAMB231 cells or U87 cells, or NIH3T3 cells stably overexpressing the vector-control, wild-type tTG, or Cdc42 F28L, were plated at a density of 7×10^3 cells/ml in medium containing 0.3% agarose, without or with various inhibitors as indicated, onto underlays composed of growth medium containing 0.6% agarose in six-well dishes. The soft agar cultures were re-fed (including the addition of freshly prepared MVs and treatments with various inhibitors as indicated) every third day for 12 days, at which time the colonies that formed were counted. […]

MDAMB231 cells [1] = experiment: MV formation by MDAMB231 cells, immunofluorescence with tTG antibody; type: cell-based, human; settings: serum-starved MDAMB231 cells treated with inhibitor
Description: FIG. 38. Serum-starved MDAMB231 cells treated without or with T101, MDC, BFA, or Exo1, were immuno-stained with a tTG antibody. Shown are representative images of the cells exposed to the various inhibitors. Cells forming MVs are denoted with arrows.
(§1) The MDAMB231, U87, MCF10A, and HeLa cell lines were grown in RPMI 1640 medium containing 10% fetal bovine serum, while the NIH3T3 cell line was grown in DMEM medium containing 10% calf serum. Expression constructs were transfected into cells using Lipofectamine, whereas the control and tTG siRNAs were introduced into cells with Lipofectamine 2000. As indicated, cells were incubated with serum-free medium containing combinations of 0.1 μg/ml EGF, 100 μM MDC, 10 μM T101, 10 μM BFA, and 10 μM Exo1. To mitotically arrest MDAMB231 cells, plates of cells were treated with 10 μg/ml mitomycin-C for 2 hours, before rinsing the solution away and allowing the cells to recover in growth medium (RPMI-1640 medium containing 10% FBS) for a day.
Cells were fixed with 3.7% paraformaldehyde and then some samples were permeabilized with phosphate-buffered saline (PBS) containing 0.1% Triton X-100. Permeabilized and non-permeabilized samples were incubated with a tTG antibody, and then incubated with Oregon green 488-conjugated secondary antibody. Rhodamine-conjugated phalloidin was used to stain actin and DAPI was used to stain nuclei. The cells were visualized by fluorescent microscopy and the images were captured and processed using IPLABS.

MDAMB231 cells [2] = experiment: Shedding of MVs by MDAMB231 cells, immunoblot of flotillin-2 and tTG in MV lysates; type: cell-based, human; settings: MDAMB231 cells treated with inhibitor
Excerpt: FIG. 39. Serum-starved MDAMB231 cells treated without or with the tTG inhibitors T101 and MDC (left panel), transfected with either control siRNA (siCont) or two distinct tTG siRNAs (siTG-1 and siTG-2) (middle panel), or treated without or with the inhibitors of classical secretion, BFA and Exo1 (right panel), were lysed (WCLs) and the MVs released into the medium by the cells were also collected and lysed. The extracts were immunoblotted with antibodies against tTG, the MV-marker flotillin-2, and the cytosolic-specific-marker IκBα.
For each of the experiments that used MV preparations, the conditioned medium from 5.0×10^6 serum-starved MDAMB231 cells or U87 cells (which is the equivalent of two nearly confluent 150 MM dishes of either of these cell lines) were collected and the MVs isolated from the medium as previously described. […]
The protein concentrations of the whole cell lysates (WCLs) were determined using the Bio-Rad DC protein assay, while the MV lysates were normalized for comparison by isolating them from the conditioned medium of 5.0×10^6 serum-starved MDAMB231 cells or U87 cells for each of the experimental conditions assayed, and then lysing in 250 μl of cell lysis buffer. […] The primary antibodies were detected with horseradish peroxidase-conjugated secondary antibodies (Amersham Biosciences) followed by exposure to ECL reagent.

[3] = system: NIH3T3 fibroblasts stably overexpressing Myc-tagged tTG; experiment: Cell death assay on NIH3T3 fibroblasts stably overexpressing Myc-tTG; type: cell-based; settings: serum-free medium, cells treated with MDC
Description: FIG. 23. Cell death assays were performed on the NIH3T3 stable cell lines maintained in serum-free medium that was treated with T101, MDC, or 2% CS-medium, or was untreated. Data represents the mean±s.d. from at least three independent experiments.
NIH3T3 cells or MCF10A cells were plated in each well of a 6-well dish and then cultured in medium containing 2% CS or serum-free medium supplemented without or with MVs derived from 5.0×10^6 MDAMB231 cells or U87 cells, and without or with MDC or T101, as indicated. Two days later the cultures were fixed and stained with DAPI for viewing by fluorescence microscopy. Cells undergoing apoptosis were identified by nuclear condensation or blebbing and the percentage of cell death was determined by calculating the ratio of apoptotic to total cells for each condition. These experiments were conducted at least three times and the results from each experiment were averaged together and graphed.

tTG = biological target: T1, tTG (Homo sapiens, UniProt P21980); experiment: Transamidation activity of intact MDAMB231 cell-derived MVs (incorporation of BPA into casein); type: biochemical; settings: pre-treatment of intact MDAMB231 cell-derived MVs with inhibitor
T1 construct: endogenous in cells; host or cells: microvesicles shed by serum-starved MDAMB231 (and U87) cells
T1 sequence (P21980 1-687): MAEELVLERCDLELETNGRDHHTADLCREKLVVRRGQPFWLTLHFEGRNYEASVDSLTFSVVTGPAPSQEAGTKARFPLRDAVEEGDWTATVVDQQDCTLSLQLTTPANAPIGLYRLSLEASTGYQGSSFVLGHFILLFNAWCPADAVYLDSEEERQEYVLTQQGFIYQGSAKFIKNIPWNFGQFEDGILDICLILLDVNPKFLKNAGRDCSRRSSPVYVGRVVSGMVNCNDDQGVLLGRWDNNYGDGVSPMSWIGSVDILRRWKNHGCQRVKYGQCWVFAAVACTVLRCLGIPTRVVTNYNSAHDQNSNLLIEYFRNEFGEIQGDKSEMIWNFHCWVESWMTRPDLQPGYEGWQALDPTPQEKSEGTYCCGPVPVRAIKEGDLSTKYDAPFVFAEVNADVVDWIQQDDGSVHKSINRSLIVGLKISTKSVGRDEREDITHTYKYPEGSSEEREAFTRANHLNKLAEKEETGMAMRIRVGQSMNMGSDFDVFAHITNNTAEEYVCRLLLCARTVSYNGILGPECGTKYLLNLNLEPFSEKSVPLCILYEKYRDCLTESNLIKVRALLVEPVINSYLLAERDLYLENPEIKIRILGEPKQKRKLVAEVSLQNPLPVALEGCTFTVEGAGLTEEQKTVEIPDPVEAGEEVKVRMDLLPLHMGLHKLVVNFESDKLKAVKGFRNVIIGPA
Description: FIG. 17. Whole cell lysates (WCLs) of serum-starved MDAMB231 cells, as well as intact MVs generated by these cells treated without or with the tTG inhibitors T101 (cell-impermeable) or MDC (cell-permeable), were assayed for transamidation activity as readout by the incorporation of BPA into casein. The samples were then immunoblotted with antibodies against tTG, flotillin-2, and IκBα.
The transamidation activity in whole cell extracts was readout by the incorporation of BPA into lysate proteins as previously described, whereas the transamidation activity of recombinant tTG (0.1 μM) exposed to increasing concentrations of T101 was determined using a spectrophotometric assay. The transamidation activity associated with MVs was readout by incubating equal amounts (75 μl) of each MV sample in a buffer containing 40 mM N′N-dimethyl casein, 2 mM BPA, 40 mM CaCl2, and 40 mM dithiothreitol for 15 minutes. The reaction was stopped by the addition of Laemmli sample buffer followed by boiling. The reactions were then resolved by SDS-PAGE and the proteins transferred to polyvinylidene difluoride membranes. […]

MDAMB231 cells [4] = experiment: Tumor formation assay in nude mice; type: in vivo; settings: cells exposed to mitomycin-C before subcutaneous injection into nude mice
Description: FIG. 25. Tumor formation assays were performed in which 5×10^5 mitotically-arrested (using mitomycin-C) MDAMB231 cells (denoted as Mito-C-MDAMB231) expressing either control siRNA (siCont) or tTG siRNAs (denoted as siTG-1 or siTG-2) were subcutaneously injected singly, or combined with 5×10^5 NIH3T3 fibroblasts, into nude mice. As controls, untreated MDAMB231 and NIH3T3 cells were injected into nude mice.
The MDAMB231, U87, MCF10A, and HeLa cell lines were grown in RPMI 1640 medium containing 10% fetal bovine serum, while the NIH3T3 cell line was grown in DMEM medium containing 10% calf serum. Expression constructs were transfected into cells using Lipofectamine, whereas the control and tTG siRNAs were introduced into cells with Lipofectamine 2000. As indicated, cells were incubated with serum-free medium containing combinations of 0.1 μg/ml EGF, 100 μM MDC, 10 μM T101, 10 μM BFA, and 10 μM Exo1. […]
5×10^5 mitotically arrested (using mitomycin-C) MDAMB231 cells stably expressing control or tTG siRNAs were combined with 5×10^5 NIH3T3 fibroblasts and growth factor-reduced Matrigel (BD Biosciences) to achieve 30% Matrigel in the final solution. […] After a month, the animals were sacrificed and the resulting tumors that formed for each experimental condition were excised and counted. […]

[5] = system: HeLa cervical carcinoma cells; experiment: MV formation in HeLa cells, rhodamine-phalloidin labeling; type: cell-based, human; settings: serum-starved HeLa cells, EGF stimulation
Description: FIG. 2. Quantification of MV production by various cell lines cultured under serum-starved or EGF-stimulated conditions. Cells generating MVs were detected by labeling the samples with rhodamine-conjugated phalloidin. The data shown represents the mean±s.d. from three independent experiments.
FIG. 3. Images of cells from the experiment performed in FIG. 2. Some of the MVs are denoted with arrows.
as §1

| Molecule | effect on MV formation (MDAMB231 cells [1]) | effect on shedding of MVs (flotillin-2 and tTG in isolated MVs) (MDAMB231 cells [2]) | other results |
| --- | --- | --- | --- |
| COc1cc2ncnc(Nc3cccc(Cl)c3)c2cc1OC [AG1478] |  |  | anchorage-independent growth advantage imparted by U87 cell-derived MVs (NIH3T3 fibroblasts): insensitive |
| C[C@H]1CCC/C=C/[C@@H]2C[C@H](O)C[C@H]2[C@H](O)/C=C/C(=O)O1 [BFA, brefelden A] | not sensitive | nor was it affected |  |
| COC(=O)c1ccccc1NC(=O)c1ccc(F)cc1 [ExoI] | not sensitive | nor was it affected |  |
| CN(C)c1cccc2c(S(=O)(=O)NCCCCCN)cccc12 [MDC, monodansylcadaverine] | had no effect |  | resistance to serum-deprivation-induced apoptosis [3]: ablated; crosslinking activity associated with MVs (levels of BPA-labeled casein) (tTG): greatly diminished |
| CO[C@@]12[C@H](COC(N)=O)C3=C(C(=O)C(C)=C(N)C3=O)N1C[C@@H]1N[C@@H]12 [mitomycin-C] |  |  | ability of MDAMB231 cells to form tumors (MDAMB231 cells [4]): inhibited |
| epidermal growth factor [EGF, growth factor used to stimulate cells] |  |  | MV formation [5]: induced |
